From ChEMBL document CHEMBL5120844, “Discovery of novel non-steroidal selective glucocorticoid receptor modulators by structure- and IGN-based virtual screening, structural optimization, and biological evaluation” (Eur J Med Chem, 2022)
Calls of active or inactive are those of the source. The rule behind the calls is not given here.

What was measured:
[1] = biological target: T1, Progesterone receptor (Homo sapiens) (UniProt P06401); assay: Agonist activity at progesterone receptor (unknown origin) expressed in PC3 cells co-transfected with ARR3tk-luciferase/Renilla at 10 to 25 uM incubated for 16 hrs by luciferase reporter gene assay; type: cell-based; details: PC-3, filed as agonist, dose 10-25 µM
T1 sequence (whole entry): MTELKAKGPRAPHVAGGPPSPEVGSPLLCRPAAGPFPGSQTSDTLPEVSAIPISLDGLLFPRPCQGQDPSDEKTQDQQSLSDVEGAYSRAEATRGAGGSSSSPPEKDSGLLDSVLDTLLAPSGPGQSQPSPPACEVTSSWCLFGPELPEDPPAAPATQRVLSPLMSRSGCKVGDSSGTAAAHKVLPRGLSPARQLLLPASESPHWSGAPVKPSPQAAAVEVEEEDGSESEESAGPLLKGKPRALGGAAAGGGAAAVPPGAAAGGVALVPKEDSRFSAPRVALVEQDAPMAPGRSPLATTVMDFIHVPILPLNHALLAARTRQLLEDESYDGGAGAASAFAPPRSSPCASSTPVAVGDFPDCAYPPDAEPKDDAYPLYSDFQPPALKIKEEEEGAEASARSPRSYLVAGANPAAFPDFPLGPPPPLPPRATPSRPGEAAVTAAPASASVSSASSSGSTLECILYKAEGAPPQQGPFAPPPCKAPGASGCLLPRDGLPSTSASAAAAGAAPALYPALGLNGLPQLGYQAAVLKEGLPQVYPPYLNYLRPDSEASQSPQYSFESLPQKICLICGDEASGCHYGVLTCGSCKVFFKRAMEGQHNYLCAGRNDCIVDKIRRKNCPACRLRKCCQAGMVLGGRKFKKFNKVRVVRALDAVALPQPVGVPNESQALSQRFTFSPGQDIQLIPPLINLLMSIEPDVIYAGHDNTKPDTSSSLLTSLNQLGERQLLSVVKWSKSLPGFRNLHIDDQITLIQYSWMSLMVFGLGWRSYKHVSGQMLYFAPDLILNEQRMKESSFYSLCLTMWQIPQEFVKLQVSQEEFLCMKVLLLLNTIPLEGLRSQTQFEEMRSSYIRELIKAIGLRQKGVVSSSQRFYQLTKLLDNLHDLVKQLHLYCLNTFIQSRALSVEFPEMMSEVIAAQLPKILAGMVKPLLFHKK

MG-63 [2] = assay: Induction of osteoporosis in human MG-63 cells assessed as decrease in OPG mRNA expression level at 10 uM by qRT-PCR analysis; type: functional, cell-based
RAW264.7 [3] = assay: Anti-inflammatory activity against mouse RAW264.7 cells assessed as reduction in LPS-induced […] mRNA expression level preincubated for 1 hr followed by LPS addition and measured after 16 hrs by qRT-PCR analysis; type: functional, cell-based; details: time 17.0 hrs
MG-63 [4] = assay: Induction of osteoporosis in human MG-63 cells assessed as decrease in RANKL mRNA expression level at 10 uM by qRT-PCR analysis; type: functional, cell-based
RAW264.7 [5] = assay: Anti-inflammatory activity against mouse RAW264.7 cells assessed as inhibition of LPS-induced NO production at 25 uM incubated for 16 hrs by Greiss reagent assay; type: functional, cell-based
RAW264.7 [6] = assay: Anti-inflammatory activity against mouse RAW264.7 cells assessed as reduction in LPS-induced IL-1beta mRNA expression level preincubated for 1 hr followed by LPS addition and measured after 16 hrs by qRT-PCR analysis; type: functional, cell-based; details: time 17.0 hrs
A549 = assay: Anti-inflammatory activity against human A549 cells assessed as reduction in TNFalpha induced IL-1beta mRNA expression level by qRT-PCR analysis; type: functional, cell-based
[7] = biological target: T2, Mineralocorticoid receptor (Homo sapiens) (UniProt P08235); assay: Agonist activity at mineralocorticoid receptor (unknown origin) expressed in HEK293T cells co-transfected with pGL4.36[luc2P MMTV Hygro]/Renilla at 10 to 25 uM incubated for 16 hrs by luciferase reporter gene assay; type: cell-based; details: filed as agonist, dose 10-25 µM
T2 sequence (whole entry): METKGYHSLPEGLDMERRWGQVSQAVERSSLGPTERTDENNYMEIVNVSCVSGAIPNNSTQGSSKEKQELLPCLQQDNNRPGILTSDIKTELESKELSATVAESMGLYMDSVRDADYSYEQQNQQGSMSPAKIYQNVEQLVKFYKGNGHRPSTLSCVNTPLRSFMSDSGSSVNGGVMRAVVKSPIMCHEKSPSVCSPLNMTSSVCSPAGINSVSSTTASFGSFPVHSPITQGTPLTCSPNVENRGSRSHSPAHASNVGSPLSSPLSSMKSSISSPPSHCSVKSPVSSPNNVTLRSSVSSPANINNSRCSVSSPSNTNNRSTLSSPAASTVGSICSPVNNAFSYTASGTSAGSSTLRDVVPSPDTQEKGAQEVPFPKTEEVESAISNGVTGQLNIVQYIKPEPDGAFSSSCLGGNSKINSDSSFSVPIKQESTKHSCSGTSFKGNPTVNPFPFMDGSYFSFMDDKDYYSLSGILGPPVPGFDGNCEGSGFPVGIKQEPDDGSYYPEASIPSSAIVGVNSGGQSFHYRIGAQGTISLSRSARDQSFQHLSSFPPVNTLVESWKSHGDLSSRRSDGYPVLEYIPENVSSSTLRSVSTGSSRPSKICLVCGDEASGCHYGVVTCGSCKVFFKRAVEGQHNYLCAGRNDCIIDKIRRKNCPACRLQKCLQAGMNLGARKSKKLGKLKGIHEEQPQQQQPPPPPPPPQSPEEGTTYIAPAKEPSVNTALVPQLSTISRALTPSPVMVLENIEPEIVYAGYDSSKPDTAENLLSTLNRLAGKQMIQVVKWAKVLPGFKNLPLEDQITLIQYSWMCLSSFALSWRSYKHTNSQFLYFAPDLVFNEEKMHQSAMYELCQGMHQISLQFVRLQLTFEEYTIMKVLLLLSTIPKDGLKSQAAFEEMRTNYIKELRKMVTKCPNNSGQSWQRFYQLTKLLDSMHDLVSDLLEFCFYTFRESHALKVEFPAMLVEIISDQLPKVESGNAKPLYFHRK

HeLa = assay: Inhibition of NF-kappaB transcriptional activity in human HeLa cells transfected with NF-kappaB-Luc at 10 uM by dual-luciferase reporter gene assay relative to control; type: cell-based
RAW264.7 [8] = assay: Anti-inflammatory activity against mouse RAW264.7 cells assessed as reduction in LPS-induced IL-6 mRNA expression level preincubated for 1 hr followed by LPS addition and measured after 16 hrs by qRT-PCR analysis; type: functional, cell-based; details: time 17.0 hrs
NIH3T3 = assay: Cytotoxicity against mouse 3T3 cells assessed as reduction in cell viability after 24 hrs by MTT assay; type: toxicity, cell-based; details: nih3t3, 24 h
[9] = Inhibition of NF-kappaB transcriptional activity in human HeLa cells transfected with NF-kappaB-Luc by dual-luciferase reporter gene assay; type: cell-based
RAW264.7 [10] = assay: Anti-inflammatory activity against mouse RAW264.7 cells assessed as reduction in LPS-induced COX-2 mRNA expression level preincubated for 1 hr followed by LPS addition and measured after 16 hrs by qRT-PCR analysis; type: functional, cell-based; details: time 17.0 hrs
RAW264.7 [11] = assay: Cytotoxicity against mouse RAW264.7 cells assessed as reduction in cell viability at 25 uM incubated for 48 hrs by MTT assay; type: toxicity, cell-based; details: raw264.7, 48 h
[12] = biological target: T3, Glucocorticoid receptor (Homo sapiens) (UniProt P04150); assay: Binding affinity to recombinant human GST-tagged glucocorticoid receptor ligand binding domain at 10 uM by TR-FRET assay relative to control; details: filed as modulator
T3 sequence (whole entry): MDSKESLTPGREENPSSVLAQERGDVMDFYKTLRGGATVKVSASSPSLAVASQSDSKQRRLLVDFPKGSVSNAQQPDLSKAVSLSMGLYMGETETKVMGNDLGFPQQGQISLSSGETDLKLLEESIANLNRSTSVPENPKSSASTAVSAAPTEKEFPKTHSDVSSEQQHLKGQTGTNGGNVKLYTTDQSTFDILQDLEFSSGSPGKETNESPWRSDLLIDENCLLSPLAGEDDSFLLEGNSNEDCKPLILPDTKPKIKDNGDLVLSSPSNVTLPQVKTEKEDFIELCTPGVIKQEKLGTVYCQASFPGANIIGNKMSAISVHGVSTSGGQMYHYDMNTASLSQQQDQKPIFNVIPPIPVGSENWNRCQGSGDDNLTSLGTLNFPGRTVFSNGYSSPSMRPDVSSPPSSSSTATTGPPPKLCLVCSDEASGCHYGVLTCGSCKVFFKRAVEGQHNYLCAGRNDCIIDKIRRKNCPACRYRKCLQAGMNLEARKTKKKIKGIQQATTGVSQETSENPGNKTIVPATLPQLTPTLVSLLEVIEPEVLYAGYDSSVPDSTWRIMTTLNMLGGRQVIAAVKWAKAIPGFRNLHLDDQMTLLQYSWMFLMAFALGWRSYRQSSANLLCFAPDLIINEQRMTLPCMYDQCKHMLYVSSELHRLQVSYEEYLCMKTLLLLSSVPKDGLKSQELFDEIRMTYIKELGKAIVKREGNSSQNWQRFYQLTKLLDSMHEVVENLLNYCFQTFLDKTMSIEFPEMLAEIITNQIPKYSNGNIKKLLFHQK

[13] = biological target: T3, Glucocorticoid receptor (Homo sapiens); assay: (§1) Binding affinity to recombinant human GST-tagged glucocorticoid receptor ligand binding domain by TR-FRET assay relative to control; details: filed as modulator, DDE = dose-dependent effect
Glucocorticoid receptor = biological target: T4, Glucocorticoid receptor (Homo sapiens, UniProt P04150); assay: as §1
T4 sequence (P04150 whole entry): T3 sequence (whole entry)

C[C@@H]1C[C@H]2[C@@H]3CCC4=CC(=O)C=C[C@]4(C)[C@@]3(F)[C@@H](O)C[C@]2(C)[C@@]1(O)C(=O)CO
Activity [1]: Active | Activity (MG-63 [2]): Toxic | Activity (RAW264.7 [3]): Active | Activity (MG-63 [4]): Non-Toxic | inhibition (RAW264.7 [5]): Active | Activity (RAW264.7 [6]): Active | Activity (A549): Active | Activity [7]: Active

O=C(c1ccc(Cn2c(=S)[nH]c3ccc(Br)cc3c2=O)cc1)N1CCN(c2cccc(Cl)c2)CC1
inhibition (HeLa): 54.1%

Cc1ccc(S(=O)(=O)NCc2ccc(C(=O)NC(C)c3ccccc3)cc2)cc1 (configuration not stated)
inhibition (HeLa): 51.3%

O=C(c1ccc2c(=O)n(Cc3ccc(Cl)cc3)c(=S)[nH]c2c1)N(CCO)Cc1ccccc1
inhibition (HeLa): 75.8%

Cn1c(=O)n(C)c2cc(NC(=O)c3ccc(CN4CCc5ccccc5C4)cc3)ccc21
inhibition (HeLa): 10.6%

CC(NC(=O)c1ccc(CN2CCc3ccccc3C2)cc1)c1ccccc1 (configuration not stated)
inhibition (HeLa): 49.1%

C[C@H](NC(=O)c1ccc(Cn2c(=S)[nH]c3ccsc3c2=O)cc1)c1ccccc1
Activity (RAW264.7 [8]): Active | Activity (NIH3T3): Non-Toxic | IC50 [9]: 1.92 µM | Activity (RAW264.7 [6]): Active | Activity (RAW264.7 [10]): Active

CC(NC(=O)c1ccc(CN2CC(=O)N3CSC[C@@H]3C2=O)cc1)c1ccccc1 (some centres not stated)
inhibition (HeLa): 34.1%

O=C(NCc1cccnc1)c1ccc(Cn2c(=S)[nH]c3ccsc3c2=O)cc1
inhibition (HeLa): 76%

CC(NC(=O)c1ccc(Cn2c(=S)[nH]c3ccsc3c2=O)cc1)c1ccccc1 (configuration not stated)
Activity (RAW264.7 [8]): Active | Activity (MG-63 [2]): Toxic | inhibition (HeLa): 86.9% | IC50 [9]: 2.32 µM | Activity (MG-63 [4]): Non-Toxic | inhibition (RAW264.7 [5]): Active | Activity (RAW264.7 [6]): Active | Activity (RAW264.7 [11]): Non-Toxic | Activity [12]: < 60% | Activity (RAW264.7 [10]): Active | Activity (A549): Active | Activity [13]: Dde | IC50 (Glucocorticoid receptor): 2.05 µM

O=C(Nc1ccccc1C(=O)NCc1cccnc1)c1ccc(CN2CCc3ccccc3C2)cc1
inhibition (HeLa): 89% | IC50 [9]: 6.61 µM

COc1ccccc1Nc1nc(C(=O)N(CC(=O)NC2CC2)Cc2ccccc2)cs1
inhibition (HeLa): 99.9% | IC50 [9]: 1.07 µM

CC(NC(=O)c1ccc(Cn2c(=S)[nH]c3ccsc3c2=O)cc1)c1ccc2c(c1)OCO2 (configuration not stated)
inhibition (HeLa): 94.6% | IC50 [9]: 5.14 µM

CC(NC(=O)c1ccc(/C=C2/Sc3ccccc3NC2=O)cc1)c1ccc2c(c1)OCCO2 (configuration not stated)
inhibition (HeLa): 67% | IC50 [9]: 18.3 µM

C[C@@H](NC(=O)c1ccc(Cn2c(=S)[nH]c3ccsc3c2=O)cc1)c1ccccc1
Activity (RAW264.7 [8]): Active | Activity (NIH3T3): Non-Toxic | IC50 [9]: 3.8 µM | Activity (RAW264.7 [6]): Active | Activity (RAW264.7 [10]): Active

COc1ccc(CNC(=O)c2ccc(Cn3c(=S)[nH]c4ccsc4c3=O)cc2)cc1
inhibition (HeLa): 93.1% | IC50 [9]: 7.38 µM

CC(C)[C@H](NC(=O)C(C)(F)F)[C@H](Oc1ccc2c(cnn2-c2ccc(=O)n(C)c2)c1)c1ccccc1
Activity (MG-63 [2]): Toxic | Activity (MG-63 [4]): Non-Toxic

O=C(c1ccc(Cn2c(=S)[nH]c3ccsc3c2=O)cc1)N1CCc2ccccc2C1
inhibition (HeLa): 106% | IC50 [9]: 0.99 µM
